Experimental findings from paper PMC3221505, “Simple, Rapid and Validated LC Determination of Lopinavir in Rat Plasma and its Application in Pharmacokinetic Studies” (Scientia Pharmaceutica, 2011) are described below.

Series [1] can be described thus: Pharmacokinetic study after intravenous bolus administration of LPV in rats. The following applies: male Wistar rats, 5 mg kg^−1, n = 6, plasma. In kind it is in vivo. On the procedure:
Formulation was administered through tail vein in male Wistar rats (n = 6), weighing 180 to 220 g, at a dose of 5 mg kg^−1 [35]. Blood samples were drawn from retro-orbital plexus of Wistar rats at 0.083, 0.167, 0.25, 0.5, 1, 2, 3, 4, 6, 8, 12 and 24 h post dose in microfuge tube pretreated with sodium citrate solution (3.8% w/v). A baseline blank plasma sample was drawn from each animal before drug administration. All samples were processed according to the procedure described earlier and analyzed using the validated HPLC method.

Series [2] is described as follows: Freeze-thaw stability of LPV in rat plasma. The following applies: rat plasma QC samples, end of three freeze-thaw cycles, frozen at −20 °C. Format: in vitro ADME, Wistar rat. On the procedure:
Total of four sets were prepared in triplicates and one set of the prepared concentrations was analyzed on the day of preparation (no freeze-thaw cycle) and the remaining three sets were frozen at −20 °C for 24 h. Frozen samples were thawed by keeping the sealed tubes at room temperature for at least 1 h. One set in triplicate was analyzed and the remaining two sets were kept at −20 °C for freezing and were analyzed after two and three freeze-thaw cycles.

Series [3] in a line: Post extraction stability of processed samples of LPV in rat plasma. In kind it is physicochemical, Wistar rat. The conditions noted are these: processed rat plasma QC samples kept in auto sampler rack, 24 h. How it is done: Processed samples were kept in the sample rack of auto sampler and samples were analyzed in triplicates every 6 h for 24 h period on the day of preparation. The percentage deviation from the mean concentrations observed at zero time was calculated.

A word on the AUC: it is concentration integrated over time. In general, half-life refers to the time in which the quantity being followed falls by half. As a reminder, the MRT is a mean duration of stay, worked out from the concentration-time curve. A word on the clearance: it is the rate of elimination divided by the concentration. As for `Cc1cccc(C)c1OCC(=O)N[C@@H](Cc1ccccc1)[C@@H](O)C[C@H](Cc1ccccc1)NC(=O)[C@H](C(C)C)N1CCCNC1=O` [LPV, (2S)-N-[(1S,3S,4S)-1-benzyl-4-{[(2,6-dimethyl-phenoxy)acetyl]amino}-3-hydroxy-5-phenylpentyl]-3-methyl-2-(2-oxotetrahydropyrimidin-1(2H)-yl)butanamide], the “area under the first-moment curve (AUMC)” value in series [1] came to 4403.07 ± 171.33 h^2 ng mL^−1. Also, the exposure (AUC) in series [1] (rat, read-out: area under the curve (AUC)) was determined as 3850 ± 264 ng·h/mL. For the same compound, in series [1] (rat, read-out: concentration at time zero (Co)), the C0 turned out to be 3170 ± 290 ng/mL. For the same compound, in series [1] (rat, read-out: elimination half-life (t½) (converted)), the half-life is 49.2 ± 1.8 min. Further, in series [1] (rat, read-out: mean retention time (MRT)), the mean residence time (MRT) worked out at 69 ± 3 min. In addition, the clearance in series [1] (rat, read-out: total plasma clearance (CLs) (converted)) was 22.4 mL/min/kg. For the same compound, the Vd in series [1] (rat, read-out: volume of distribution (Vss)) worked out at 1.59 ± 0.146 L/kg. For the same compound, the “deviation from the zero time concentration (freeze-thaw stability)” value in series [2] is reported as “less than 8.0%”. Further, the “maximum deviation from the zero time concentration (post extraction stability)” value in series [3] is on record as “less than 2.0%”.
